Data as given in patent US10441657B2, “Methods and compositions for self-regulated release of active pharmaceutical ingredient” (Acura Pharmaceuticals, Inc., priority 2012, dated 2019).

How the values were obtained:
[1] = pH of dissolution vessel with calcium carbonate antacid tablets in HCl; type: physicochemical; conditions: in 10 minutes (FIG. 1)
Procedure: Two dissolution vessels were prepared: one vessel contained 25 mEq of HCl and a single commercially available calcium carbonate antacid tablet (Tums®), and the other vessel contained 25 mEq of HCl and five calcium carbonate antacid tablets. […] Calcium carbonate has shown a capability as a pH modifier and pH dependent solubility.

[2] = earlier experimentation
Procedure: Thus, sodium bicarbonate was added to a prototype formulation primarily to control rapid pH elevation and calcium carbonate for a more sustained control of elevated pH.

Row | SMILES | pH change seen for calcium carbonate [1] | time to raise acid media from pH 1 to pH 6 [2]
1 | O=C([O-])[O-].[Ca+2] [calcium carbonate] | 5 | –
2 | O=C([O-])O.[Na+] [sodium bicarbonate] | – | less than 2 minutes
